ChEMBL document CHEMBL4507322, “Data for DCP probe (R)-ZINC-3573” (2021)

Columns and labels:
[1] = molecular target: 5-hydroxytryptamine receptor 1A (Homo sapiens, UniProt P08908); assay: GPCRScan assay: inhibition of 5-HT1A; parameters: radioligand conc. used [nm] 0.5 – 1.0, parental cells stable CHO
[2] = molecular target: T1, 5-hydroxytryptamine receptor 1B (Homo sapiens, UniProt P28222); assay: GPCRScan assay: inhibition of 5-HT1B; parameters: radioligand conc. used [nm] 0.6 – 1.5, parental cells stable HEK
T1 sequence (P28222 whole entry): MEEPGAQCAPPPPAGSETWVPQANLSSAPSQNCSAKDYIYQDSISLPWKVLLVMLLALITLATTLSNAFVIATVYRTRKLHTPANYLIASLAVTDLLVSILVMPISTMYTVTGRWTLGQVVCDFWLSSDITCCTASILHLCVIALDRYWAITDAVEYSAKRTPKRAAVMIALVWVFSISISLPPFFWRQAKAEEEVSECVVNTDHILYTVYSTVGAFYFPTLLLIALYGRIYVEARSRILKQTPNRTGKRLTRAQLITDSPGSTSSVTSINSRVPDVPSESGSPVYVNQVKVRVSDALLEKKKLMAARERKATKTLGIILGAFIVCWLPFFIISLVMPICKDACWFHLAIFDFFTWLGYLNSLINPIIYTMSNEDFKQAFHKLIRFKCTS

[3] = molecular target: T2, 5-hydroxytryptamine receptor 1D (Homo sapiens, UniProt P28221); assay: GPCRScan assay: inhibition of 5-HT1D; parameters: radioligand conc. used [nm] 1.0 – 2.0, parental cells HEKT
T2 sequence (P28221 whole entry): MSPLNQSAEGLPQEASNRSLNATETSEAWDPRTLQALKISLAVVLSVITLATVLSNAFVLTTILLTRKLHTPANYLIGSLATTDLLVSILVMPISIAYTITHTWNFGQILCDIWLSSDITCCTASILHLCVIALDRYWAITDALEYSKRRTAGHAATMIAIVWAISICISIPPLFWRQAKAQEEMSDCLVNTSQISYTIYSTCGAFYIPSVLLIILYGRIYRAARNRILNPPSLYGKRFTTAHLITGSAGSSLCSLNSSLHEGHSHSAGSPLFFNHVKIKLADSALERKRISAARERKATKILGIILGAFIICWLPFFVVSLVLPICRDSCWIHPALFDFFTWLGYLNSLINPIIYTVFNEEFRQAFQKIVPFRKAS

[4] = molecular target: T3, 5-hydroxytryptamine receptor 3A (Homo sapiens, UniProt P46098); assay: GPCRScan assay: inhibition of 5-HT3; parameters: radioligand conc. used [nm] 1.0 – 2.0, parental cells HEKT
T3 sequence (P46098 whole entry): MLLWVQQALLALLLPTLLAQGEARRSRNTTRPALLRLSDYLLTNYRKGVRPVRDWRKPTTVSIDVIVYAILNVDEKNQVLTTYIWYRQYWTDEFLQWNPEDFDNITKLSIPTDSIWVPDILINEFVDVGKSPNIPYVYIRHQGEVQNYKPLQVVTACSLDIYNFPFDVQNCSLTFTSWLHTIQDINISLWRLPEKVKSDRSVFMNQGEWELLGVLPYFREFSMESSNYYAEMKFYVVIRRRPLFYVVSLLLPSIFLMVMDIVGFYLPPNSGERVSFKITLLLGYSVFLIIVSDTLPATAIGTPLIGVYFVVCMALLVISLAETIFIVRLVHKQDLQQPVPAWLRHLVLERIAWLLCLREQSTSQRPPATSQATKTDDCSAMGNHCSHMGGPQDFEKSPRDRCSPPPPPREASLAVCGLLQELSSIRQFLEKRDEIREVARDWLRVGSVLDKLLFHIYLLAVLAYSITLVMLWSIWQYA

[5] = molecular target: T4, 5-hydroxytryptamine receptor 6 (Homo sapiens, UniProt P50406); assay: GPCRScan assay: inhibition of 5-HT6; parameters: radioligand conc. used [nm] 2.0 – 4.0, parental cells stable HEK
T4 sequence (P50406 whole entry): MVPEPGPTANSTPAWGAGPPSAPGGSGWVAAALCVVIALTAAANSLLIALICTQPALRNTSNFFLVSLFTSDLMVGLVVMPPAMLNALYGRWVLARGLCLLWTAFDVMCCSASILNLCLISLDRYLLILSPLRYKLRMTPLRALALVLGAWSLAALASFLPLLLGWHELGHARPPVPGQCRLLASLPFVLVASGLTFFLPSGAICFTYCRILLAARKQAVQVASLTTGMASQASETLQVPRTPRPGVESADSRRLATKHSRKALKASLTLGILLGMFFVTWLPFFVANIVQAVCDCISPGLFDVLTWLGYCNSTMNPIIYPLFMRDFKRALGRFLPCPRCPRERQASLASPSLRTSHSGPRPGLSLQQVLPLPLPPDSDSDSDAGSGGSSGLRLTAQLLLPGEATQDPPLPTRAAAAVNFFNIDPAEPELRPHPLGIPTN

D(2) dopamine receptor [6] = molecular target: T5, D(2) dopamine receptor (Homo sapiens, UniProt P14416); assay: GPCRScan assay: inhibition of D2; parameters: radioligand conc. used [nm] 0.4 – 1.0, parental cells stable fibroblast
T5 sequence (P14416 whole entry): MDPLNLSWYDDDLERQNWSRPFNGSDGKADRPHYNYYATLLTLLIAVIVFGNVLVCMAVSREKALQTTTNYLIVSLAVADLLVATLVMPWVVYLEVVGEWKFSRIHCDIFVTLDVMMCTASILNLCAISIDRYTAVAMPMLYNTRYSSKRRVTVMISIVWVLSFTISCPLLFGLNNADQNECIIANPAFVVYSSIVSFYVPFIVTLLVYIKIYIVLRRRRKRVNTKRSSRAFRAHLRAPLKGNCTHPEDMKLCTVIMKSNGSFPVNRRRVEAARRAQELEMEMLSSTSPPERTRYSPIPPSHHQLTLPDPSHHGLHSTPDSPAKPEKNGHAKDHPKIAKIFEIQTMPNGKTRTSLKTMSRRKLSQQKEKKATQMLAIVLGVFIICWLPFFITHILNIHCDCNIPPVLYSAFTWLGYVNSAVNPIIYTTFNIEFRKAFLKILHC

[7] = molecular target: T6, Sodium-dependent dopamine transporter (Homo sapiens, UniProt Q01959); assay: GPCRScan assay: inhibition of DAT; parameters: radioligand conc. used [nm] 3.6 – 16.0, parental cells stable HEK
T6 sequence (Q01959 whole entry): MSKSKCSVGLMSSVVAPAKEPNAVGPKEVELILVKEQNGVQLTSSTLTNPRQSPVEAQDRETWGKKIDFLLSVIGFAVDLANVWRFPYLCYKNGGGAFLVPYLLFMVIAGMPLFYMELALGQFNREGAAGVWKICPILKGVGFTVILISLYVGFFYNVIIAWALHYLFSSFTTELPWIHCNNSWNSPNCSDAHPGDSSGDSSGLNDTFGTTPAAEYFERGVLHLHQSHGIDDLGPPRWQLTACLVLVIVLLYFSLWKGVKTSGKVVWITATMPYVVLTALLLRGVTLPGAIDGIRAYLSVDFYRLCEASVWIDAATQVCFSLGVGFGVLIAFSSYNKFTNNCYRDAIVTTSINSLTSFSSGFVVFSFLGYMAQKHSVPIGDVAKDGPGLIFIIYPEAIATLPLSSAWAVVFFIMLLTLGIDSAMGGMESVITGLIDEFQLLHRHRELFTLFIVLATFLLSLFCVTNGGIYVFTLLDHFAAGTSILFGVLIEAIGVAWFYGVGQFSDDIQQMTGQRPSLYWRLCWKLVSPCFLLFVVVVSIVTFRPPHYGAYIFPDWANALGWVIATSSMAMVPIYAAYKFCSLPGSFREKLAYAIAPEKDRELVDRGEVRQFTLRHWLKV

[8] = molecular target: GABA-A receptor; anion channel; assay: GPCRScan assay: inhibition of GABAA/BZP; assay type: protein-complex assay, Rattus norvegicus; parameters: radioligand conc. used [nm] 0.6 – 4.0, parental cells brain tissue
[9] = molecular target: T7, Sigma intracellular receptor 2 (Homo sapiens, UniProt Q5BJF2); assay: GPCRScan assay: inhibition of Sigma 2; parameters: radioligand conc. used [nm] 5.0, parental cells HEKT
T7 sequence (Q5BJF2 whole entry): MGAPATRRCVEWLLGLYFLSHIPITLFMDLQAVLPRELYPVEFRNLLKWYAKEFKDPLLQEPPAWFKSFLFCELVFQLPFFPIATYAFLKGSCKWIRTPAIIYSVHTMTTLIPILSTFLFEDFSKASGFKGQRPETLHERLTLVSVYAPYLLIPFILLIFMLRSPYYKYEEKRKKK

[10] = molecular target: 5-hydroxytryptamine receptor 1A (Homo sapiens) (UniProt P08908); details: Compound concentration 10.0 uM
[11] = molecular target: T1, 5-hydroxytryptamine receptor 1B; details: Compound concentration 10.0 uM
[12] = molecular target: T2, 5-hydroxytryptamine receptor 1D; details: Compound concentration 10.0 uM
[13] = molecular target: 5-hydroxytryptamine receptor 1E (Homo sapiens) (UniProt P28566); details: Compound concentration 10.0 uM
[14] = molecular target: 5-hydroxytryptamine receptor 2A (Homo sapiens) (UniProt P28223); details: Compound concentration 10.0 uM
5-hydroxytryptamine receptor 2A (Homo sapiens), sequence (P28223 whole entry): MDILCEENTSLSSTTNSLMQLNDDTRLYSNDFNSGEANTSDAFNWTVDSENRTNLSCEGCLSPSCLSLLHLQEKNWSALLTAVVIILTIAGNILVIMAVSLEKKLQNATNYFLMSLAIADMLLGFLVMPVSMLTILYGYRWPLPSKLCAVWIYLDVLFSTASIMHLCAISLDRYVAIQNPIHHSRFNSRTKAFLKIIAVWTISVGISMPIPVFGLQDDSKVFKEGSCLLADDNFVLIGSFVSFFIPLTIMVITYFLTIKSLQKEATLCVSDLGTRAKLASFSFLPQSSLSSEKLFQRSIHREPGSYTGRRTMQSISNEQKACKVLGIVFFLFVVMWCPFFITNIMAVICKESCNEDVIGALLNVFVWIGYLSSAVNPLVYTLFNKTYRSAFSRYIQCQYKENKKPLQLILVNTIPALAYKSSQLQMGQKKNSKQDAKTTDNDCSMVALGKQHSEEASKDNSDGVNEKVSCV

[15] = molecular target: 5-hydroxytryptamine receptor 2B (Homo sapiens) (UniProt P41595); details: Compound concentration 10.0 uM
5-hydroxytryptamine receptor 2B (Homo sapiens), sequence (P41595 whole entry): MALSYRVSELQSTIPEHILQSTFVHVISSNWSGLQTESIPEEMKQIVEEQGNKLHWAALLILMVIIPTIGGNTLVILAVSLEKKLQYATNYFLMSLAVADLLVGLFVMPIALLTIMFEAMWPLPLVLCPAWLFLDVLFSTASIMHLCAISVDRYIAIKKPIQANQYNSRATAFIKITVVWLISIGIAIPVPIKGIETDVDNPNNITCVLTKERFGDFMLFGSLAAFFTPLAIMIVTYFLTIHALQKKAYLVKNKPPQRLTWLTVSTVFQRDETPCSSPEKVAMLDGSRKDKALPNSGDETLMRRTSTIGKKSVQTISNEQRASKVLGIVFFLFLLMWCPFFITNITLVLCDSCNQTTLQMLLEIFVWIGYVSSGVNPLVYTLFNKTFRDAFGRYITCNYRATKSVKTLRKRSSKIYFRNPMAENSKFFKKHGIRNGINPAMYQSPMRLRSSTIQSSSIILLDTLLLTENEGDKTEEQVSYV

[16] = molecular target: 5-hydroxytryptamine receptor 2C (Homo sapiens) (UniProt P28335); details: Compound concentration 10.0 uM
[17] = molecular target: 5-hydroxytryptamine receptor 3A (Homo sapiens) (UniProt P46098); details: Compound concentration 10.0 uM
[18] = molecular target: 5-hydroxytryptamine receptor 5A (Homo sapiens) (UniProt P47898); details: Compound concentration 10.0 uM
[19] = molecular target: T4, 5-hydroxytryptamine receptor 6; details: Compound concentration 10.0 uM
[20] = molecular target: 5-hydroxytryptamine receptor 7 (Homo sapiens) (UniProt P34969); details: Compound concentration 10.0 uM
[21] = molecular target: D(1A) dopamine receptor (Homo sapiens) (UniProt P21728); details: Compound concentration 10.0 uM
D(2) dopamine receptor [22] = molecular target: T5, D(2) dopamine receptor; details: Compound concentration 10.0 uM
[23] = molecular target: D(3) dopamine receptor (Homo sapiens) (UniProt P35462); details: Compound concentration 10.0 uM
[24] = molecular target: D(4) dopamine receptor (Homo sapiens) (UniProt P21917); details: Compound concentration 10.0 uM
[25] = molecular target: D(1B) dopamine receptor (Homo sapiens) (UniProt P21918); details: Compound concentration 10.0 uM
[26] = molecular target: Sodium-dependent serotonin transporter (Homo sapiens) (UniProt P31645); details: Compound concentration 10.0 uM
[27] = molecular target: Sodium-dependent noradrenaline transporter (Homo sapiens) (UniProt P23975); details: Compound concentration 10.0 uM
[28] = molecular target: T6, Sodium-dependent dopamine transporter; details: Compound concentration 10.0 uM
[29] = molecular target: Mu-type opioid receptor (Homo sapiens) (UniProt P35372); details: Compound concentration 10.0 uM
[30] = molecular target: Delta-type opioid receptor (Homo sapiens) (UniProt P41143); details: Compound concentration 10.0 uM
[31] = molecular target: Kappa-type opioid receptor (Homo sapiens) (UniProt P41145); details: Compound concentration 10.0 uM
[32] = molecular target: T8, GABA-A receptor; anion channel (Rattus norvegicus) (UniProt O09028+P15431+P18506+P18508+P19969+P20236+P23574+P23576+P28471+P28473+P30191+P62813+P63079+P63138+Q91ZM7+Q9ES14); details: Compound concentration 10.0 uM
[33] = molecular target: Histamine H1 receptor (Homo sapiens) (UniProt P35367); details: Compound concentration 10.0 uM
[34] = molecular target: Histamine H2 receptor (Homo sapiens) (UniProt P25021); details: Compound concentration 10.0 uM
[35] = molecular target: Histamine H3 receptor (Homo sapiens) (UniProt Q9Y5N1); details: Compound concentration 10.0 uM
[36] = molecular target: Histamine H4 receptor (Homo sapiens) (UniProt Q9H3N8); details: Compound concentration 10.0 uM
[37] = molecular target: Alpha-1A adrenergic receptor (Homo sapiens) (UniProt P35348); details: Compound concentration 10.0 uM
[38] = molecular target: Alpha-1B adrenergic receptor (Homo sapiens) (UniProt P35368); details: Compound concentration 10.0 uM
Alpha-1B adrenergic receptor (Homo sapiens), sequence (P35368 whole entry): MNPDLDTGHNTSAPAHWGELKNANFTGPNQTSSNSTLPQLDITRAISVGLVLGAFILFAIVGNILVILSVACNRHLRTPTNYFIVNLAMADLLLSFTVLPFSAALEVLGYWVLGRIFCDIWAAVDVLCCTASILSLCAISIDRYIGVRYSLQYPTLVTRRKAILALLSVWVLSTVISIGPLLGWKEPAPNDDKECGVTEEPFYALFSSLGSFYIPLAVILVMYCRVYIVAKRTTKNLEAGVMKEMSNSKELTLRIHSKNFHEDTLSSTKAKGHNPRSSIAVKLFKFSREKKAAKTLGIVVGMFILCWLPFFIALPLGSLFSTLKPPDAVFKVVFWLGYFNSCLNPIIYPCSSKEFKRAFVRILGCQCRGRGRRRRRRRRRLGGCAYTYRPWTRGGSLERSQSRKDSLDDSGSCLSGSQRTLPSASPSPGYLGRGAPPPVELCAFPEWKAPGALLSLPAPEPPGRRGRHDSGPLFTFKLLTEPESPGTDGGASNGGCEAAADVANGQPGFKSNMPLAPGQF

[39] = molecular target: Alpha-2A adrenergic receptor (Homo sapiens) (UniProt P08913); details: Compound concentration 10.0 uM
[40] = molecular target: Alpha-2B adrenergic receptor (Homo sapiens) (UniProt P18089); details: Compound concentration 10.0 uM
[41] = molecular target: Alpha-2C adrenergic receptor (Homo sapiens) (UniProt P18825); details: Compound concentration 10.0 uM
[42] = molecular target: Beta-1 adrenergic receptor (Homo sapiens) (UniProt P08588); details: Compound concentration 10.0 uM
[43] = molecular target: Beta-2 adrenergic receptor (Homo sapiens) (UniProt P07550); details: Compound concentration 10.0 uM
[44] = molecular target: Muscarinic acetylcholine receptor M1 (Homo sapiens) (UniProt P11229); details: Compound concentration 10.0 uM
[45] = molecular target: Muscarinic acetylcholine receptor M2 (Homo sapiens) (UniProt P08172); details: Compound concentration 10.0 uM
[46] = molecular target: Muscarinic acetylcholine receptor M3 (Homo sapiens) (UniProt P20309); details: Compound concentration 10.0 uM
Muscarinic acetylcholine receptor M3 (Homo sapiens), sequence (P20309 whole entry, looked up): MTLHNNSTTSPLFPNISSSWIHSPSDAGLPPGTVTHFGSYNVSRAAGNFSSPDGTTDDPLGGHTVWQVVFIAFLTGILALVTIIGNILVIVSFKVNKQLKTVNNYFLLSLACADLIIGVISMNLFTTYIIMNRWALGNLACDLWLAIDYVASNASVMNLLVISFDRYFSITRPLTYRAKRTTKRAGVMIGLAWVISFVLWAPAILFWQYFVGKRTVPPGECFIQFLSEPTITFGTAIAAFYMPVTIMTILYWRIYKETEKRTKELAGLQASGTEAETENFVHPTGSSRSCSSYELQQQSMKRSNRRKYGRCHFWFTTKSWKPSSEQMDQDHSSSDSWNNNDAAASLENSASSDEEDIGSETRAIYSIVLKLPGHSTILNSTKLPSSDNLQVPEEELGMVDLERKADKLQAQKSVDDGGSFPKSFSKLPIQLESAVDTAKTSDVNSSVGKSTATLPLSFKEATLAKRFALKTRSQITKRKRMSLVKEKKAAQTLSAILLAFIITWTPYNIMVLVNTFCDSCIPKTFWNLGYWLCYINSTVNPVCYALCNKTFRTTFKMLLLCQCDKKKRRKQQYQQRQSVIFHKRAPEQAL

[47] = molecular target: Muscarinic acetylcholine receptor M4 (Homo sapiens) (UniProt P08173); details: Compound concentration 10.0 uM
[48] = molecular target: Muscarinic acetylcholine receptor M5 (Homo sapiens) (UniProt P08912); details: Compound concentration 10.0 uM
[49] = molecular target: Beta-3 adrenergic receptor (Homo sapiens) (UniProt P13945); details: Compound concentration 10.0 uM
[50] = molecular target: T8, GABA-A receptor; anion channel (Rattus norvegicus); details: Compound concentration 10.0 uM; remark: listed apart in the source
Rattus norvegicus = species on record: Rattus norvegicus; details: Compound concentration 10.0 uM
[51] = molecular target: Alpha-1D adrenergic receptor (Homo sapiens) (UniProt P25100); details: Compound concentration 10.0 uM
[52] = molecular target: T7, Sigma intracellular receptor 2; details: Compound concentration 10.0 uM
[53] = molecular target: Sigma non-opioid intracellular receptor 1 (Homo sapiens) (UniProt Q99720); details: Compound concentration 10.0 uM
Sigma non-opioid intracellular receptor 1 (Homo sapiens), sequence (Q99720 whole entry): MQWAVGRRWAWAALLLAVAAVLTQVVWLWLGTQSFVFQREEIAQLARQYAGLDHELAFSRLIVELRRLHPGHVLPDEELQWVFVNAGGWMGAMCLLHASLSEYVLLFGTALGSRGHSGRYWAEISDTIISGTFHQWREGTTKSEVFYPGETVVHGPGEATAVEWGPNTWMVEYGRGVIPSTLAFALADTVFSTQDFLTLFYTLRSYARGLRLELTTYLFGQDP

[54] = molecular target: Alpha-1B adrenergic receptor (Homo sapiens, UniProt P35368); assay: GPCRScan assay: inhibition of Alpha1B; parameters: radioligand conc. used [nm] 0.3 – 1.0, parental cells stable HEK
Alpha-1B adrenergic receptor, sequence (P35368 whole entry): as the sequence (P35368 whole entry) above

[55] = molecular target: T9, Mas-related G-protein coupled receptor member X2 (Homo sapiens, UniProt Q96LB1); assay: PRESTO-Tango concentration response assay
[56] = molecular target: T9, Mas-related G-protein coupled receptor member X2; assay: FLIPR assay

With `CN(C)[C@@H]1CCN(c2cc(-c3ccccc3)nc3ccnn23)C1` [(R)-ZINC-3573] the Ki [1] was 1620 nM, the Ki [2] was 3.24 µM and the Ki ([3]; read-out: Ki) was 1740 nM. For the same molecule, the Ki ([3]; read-out: pKi (converted)) was 1700 nM, the Ki ([4]; read-out: Ki) was 2.96 µM and the Ki ([4]; read-out: pKi (converted)) was 2.88 µM. It also gave a Ki ([5]; read-out: Ki) of 748 nM, a Ki (D(2) dopamine receptor [6]; read-out: Ki) of 369 nM and a Ki (D(2) dopamine receptor [6]; read-out: pKi (converted)) of 355 nM. For the same molecule, the Ki ([7]; read-out: Ki) was 1110 nM, the Ki ([7]; read-out: pKi (converted)) was 1100 nM and the Ki [8] was 1940 nM. For the same molecule, the pKi [8] was 5.73, the Ki ([9]; read-out: Ki) was 489 nM and the Ki ([9]; read-out: pKi (converted)) was 479 nM. It also gave an inhibition [10] of 64.8%, an inhibition [11] of 52.5% and an inhibition [12] of 58.4%. It also gave an inhibition [13] of 7.26%, an inhibition [14] of 16.3% and an inhibition [15] of 16.7%. The inhibition [16] was 2.22%, the inhibition [17] was 76.6% and the inhibition [18] was 13.8%. For the same molecule, the inhibition [19] was 58.9%, the inhibition [20] was 12.3% and the inhibition [21] was 38.9%. It also gave an inhibition (D(2) dopamine receptor [22]) of 69.8%, an inhibition [23] of 28.1% and an inhibition [24] of 32.6%. It also gave an inhibition [25] of 6.36%, an inhibition [26] of 4.09% and an inhibition [27] of 45.4%. For the same molecule, the inhibition [28] was 74.3%, the inhibition [29] was 21.3% and the inhibition [30] was 34.3%. The inhibition [31] was 13.6%, the inhibition [32] was 37.3% and the inhibition [33] was 39.3%. For the same molecule, the inhibition [34] was 31.9%, the inhibition [35] was 38.6% and the inhibition [36] was 7.75%. The inhibition [37] was 21.8%, the inhibition [38] was 10.2% and the inhibition [39] was 32.9%. It also gave an inhibition [40] of 11.3%, an inhibition [41] of 40.5% and an inhibition [42] of 30.7%. It also gave an inhibition [43] of 14.4%, an inhibition [44] of 5.27% and an inhibition [45] of 20.1%. For the same molecule, the inhibition [46] was 11.7%, the inhibition [47] was 28.8% and the inhibition [48] was -3.76%. It also gave an inhibition [49] of 12.7%, an inhibition [50] of 54.9% and an inhibition (Rattus norvegicus) of 11.6%. The inhibition [51] was 20.4%, the inhibition [52] was 82.4% and the inhibition [53] was 28.6%.
`CN(C)[C@H]1CCN(c2cc(-c3ccccc3)nc3ccnn23)C1` [(S)-ZINC-3573] was tested, and the Ki ([3]; read-out: Ki) was 2960 nM, the Ki ([3]; read-out: pKi (converted)) was 2880 nM and the Ki ([4]; read-out: Ki) was 3.63 µM. It also gave a Ki ([4]; read-out: pKi (converted)) of 3.55 µM, a Ki ([5]; read-out: Ki) of 1090 nM and a Ki ([5]; read-out: pKi (converted)) of 1080 nM. For the same molecule, the Ki ([54]; read-out: Ki) was 2290 nM, the Ki ([54]; read-out: pKi (converted)) was 2110 nM and the Ki ([9]; read-out: Ki) was 973 nM. The EC50 [55] was > 100 µM (not active), the EC50 [56] was > 100 µM (not active) and the inhibition [10] was 19.3%. It also gave an inhibition [11] of 4.88%, an inhibition [12] of 63.2% and an inhibition [14] of 23.5%. The inhibition [15] was 33.3%, the inhibition [16] was -3.16% and the inhibition [17] was 64.5%. It also gave an inhibition [18] of 5.42%, an inhibition [19] of 69.1% and an inhibition [20] of 7.57%. The inhibition (D(2) dopamine receptor [22]) was 2.85%, the inhibition [23] was 39% and the inhibition [24] was 8.3%. It also gave an inhibition [25] of 3.36%, an inhibition [26] of 2.83% and an inhibition [27] of 2.02%. The inhibition [28] was -1.89%, the inhibition [29] was 9.07% and the inhibition [30] was 2.89%. It also gave an inhibition [31] of 6.22%, an inhibition [33] of 16.4% and an inhibition [34] of 30%. For the same molecule, the inhibition [35] was 13.4%, the inhibition [36] was 12.4% and the inhibition [37] was 34.2%. The inhibition [38] was 59.1%, the inhibition [39] was 40.2% and the inhibition [40] was 9.93%. It also gave an inhibition [41] of 16.4%, an inhibition [42] of 4.16% and an inhibition [43] of 27.4%. For the same molecule, the inhibition [44] was 42.8%, the inhibition [45] was 26.6% and the inhibition [46] was 29.4%. For the same molecule, the inhibition [47] was 34.4%, the inhibition [48] was 40.4% and the inhibition [49] was 18.9%. It also gave an inhibition [50] of 21.5%, an inhibition (Rattus norvegicus) of 2.83% and an inhibition [51] of 33.5%. It also gave an inhibition [52] of 65.1% and an inhibition [53] of 22%.
